Source: ChEMBL document CHEMBL5042471, “Development and Application of Subtype-Selective Fluorescent Antagonists for the Study of the Human Adenosine A1 Receptor in Living Cells” (J Med Chem, 2021)

Tests used:
[1] = target: T1, Adenosine receptor A3 (Homo sapiens, UniProt P0DMS8); experiment: Agonist activity at human A3 adenosine receptor expressed in Flp-In-CHO cells assessed as calcium influx by competitive binding assay; format: functional, cell-based
T1 sequence (P0DMS8 whole entry): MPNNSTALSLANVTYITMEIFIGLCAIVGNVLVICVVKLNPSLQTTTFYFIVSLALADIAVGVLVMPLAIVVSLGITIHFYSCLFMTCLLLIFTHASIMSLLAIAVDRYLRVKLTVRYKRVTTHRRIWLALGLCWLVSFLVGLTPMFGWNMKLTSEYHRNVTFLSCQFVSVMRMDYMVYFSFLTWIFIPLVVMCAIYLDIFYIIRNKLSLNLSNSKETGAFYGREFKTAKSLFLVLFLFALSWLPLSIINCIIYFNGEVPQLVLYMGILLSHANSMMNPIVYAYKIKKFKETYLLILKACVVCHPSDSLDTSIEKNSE

[2] = target: T1, Adenosine receptor A3; experiment: Agonist activity at A3 adenosine receptor (unknown origin); format: functional
[3] = target: T2, Adenosine receptor A1 (Homo sapiens, UniProt P30542); experiment: Binding affinity to N-terminal NLuc tagged human A1 adenosine receptor expressed in Flp-In-CHO cells by competitive binding assay; format: cell-based
T2 sequence (P30542 whole entry): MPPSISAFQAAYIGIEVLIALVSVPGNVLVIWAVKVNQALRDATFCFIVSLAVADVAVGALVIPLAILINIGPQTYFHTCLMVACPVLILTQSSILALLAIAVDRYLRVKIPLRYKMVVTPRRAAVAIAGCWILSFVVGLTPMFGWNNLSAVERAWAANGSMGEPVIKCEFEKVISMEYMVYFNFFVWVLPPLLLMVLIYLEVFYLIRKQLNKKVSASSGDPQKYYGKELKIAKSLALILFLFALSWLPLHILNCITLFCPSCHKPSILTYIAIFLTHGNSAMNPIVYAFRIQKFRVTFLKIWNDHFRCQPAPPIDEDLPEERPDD

[4] = target: T1, Adenosine receptor A3; experiment: Antagonist activity at N-terminal NLuc tagged human A3 adenosine receptor; format: functional

`O=C(CCCCCNC(=O)COc1ccc(/C=C/C2=[N+]3C(=Cc4ccc(-c5cccs5)n4[B-]3(F)F)C=C2)cc1)NCCCCNc1ncnc2c1ncn2[C@@H]1O[C@H](CO)[C@@H](O)[C@H]1O` was tested. Which EC50 [1] did it give?
Its EC50 is 1260 nM.

What about the EC50 [2] of the same molecule?
The EC50 was 50.1 nM.

For `CCCn1c(=O)c2[nH]c(-c3ccc(OCC(=O)NCCNC(=O)CCCCNC(=O)COc4ccc(/C=C/C5=[N+]6C(=Cc7ccc(-c8cccs8)n7[B-]6(F)F)C=C5)cc4)cc3)nc2n(CCC)c1=O`, which Ki [3] is on record?
Its Ki is 9.33 nM.

What about the Kd [4] of the same molecule?
The Kd was 30.9 nM.
